SMILES strings stand for the structures.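 Method: 48-hour compound exposure of cells in 96-well plates, five concentrations, linear interpolation of endpoints. GI50: concentration for 50% inhibition of growth. TGI denotes the concentration required for complete inhibition of growth.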 Bounds are passed on as bounds.

Experimental findings from PubChem BioAssay (NCI) are described below.

Holding throughout (experiment): growth of human tumour cells (NCI), 48 h
The test system of experiment [1] is PC-3 prostate.
Experiment [2] has as its system CCRF-CEM leukemia.
Experiment [3] deals with HL-60(TB) leukemia.
Experiment [4] has as its system A498 renal.
Experiment [5] relates to COLO 205 colon.
Experiment [6] has as its system SK-MEL-2 melanoma.
In experiment [7] the test system is SW-620 colon.
For experiment [8], the system named is OVCAR-3 ovarian.
Experiment [9] concerns CAKI-1 renal.
In experiment [10] the test system is NCI-H23 lung.

Consider `O=C(Nc1cccnc1)c1cccc([N+](=O)[O-])c1`, for which the GI50 in experiment [1], in experiment [2], in experiment [3], in experiment [4], in [5] and in [6] was above 100 µM throughout. Also, the GI50 in experiment [7], in [8], in experiment [9] and in experiment [10] was above 100 µM each time. Also, the TGI in experiment [1], in [2], in experiment [3], in [4], in experiment [5] and in [6] was above 100 µM each time. Moreover, the TGI in experiment [7], in experiment [8], in experiment [9] and in experiment [10] was above 100 µM throughout.
As to `Cc1cc(NCCCCNc2ccnc3cc(Cl)ccc23)nc(Nc2ccc(C(=O)N3CCCC3)cc2)n1`, the GI50 was 3.79 µM in [1]; 2.86 µM in experiment [2]; 0.202 µM in experiment [3]; 1.51 µM in experiment [4]; 1.81 µM in experiment [5]; 2.18 µM in [6]. The GI50 in [7] is 1.7 µM; in experiment [8] it was 1.78 µM; in [9], 2.06 µM; in experiment [10], 3.7 µM. Moreover, the TGI was 10.9 µM in experiment [1]; above 100 µM in [2]; 2.27 µM in [3]; 7.09 µM in experiment [4]; 3.56 µM in [5]; 4.27 µM in experiment [6]. In addition, the TGI in experiment [7] amounted to 3.5 µM; in experiment [8], 3.81 µM; in experiment [9], 5.6 µM; in experiment [10] it was 15.8 µM.
For `CCCC(=O)Nc1cc([N+](=O)[O-])c([N+](=O)[O-])cc1OC`, the TGI was above 100 µM in [1]; 51.4 µM in [2]; 39 µM in [3]; 32.5 µM in [4]; 30.9 µM in experiment [5]; 41.6 µM in experiment [6]. Besides, the TGI in experiment [7] came to 89.9 µM; in experiment [8], 27.8 µM; in experiment [9] it was 29.5 µM; in experiment [10], 34.4 µM.
For the compound `CS(=O)(=O)Nc1cccc(-c2ccc3c(NC(=O)C4CC4)n[nH]c3c2)c1`, the GI50 is 3.24 µM in [1]; 1.33 µM in experiment [2]; 1.73 µM in [3]; 4.32 µM in experiment [4]; 1.81 µM in experiment [5]; 1.37 µM in [6]. Further, the GI50 in experiment [7] is 2.14 µM; in [8], 0.641 µM; in experiment [9], above 20.6 µM; in experiment [10] it was 10.2 µM. In addition, the TGI is above 25 µM in [1]; above 25 µM in [2]; 10.8 µM in [3]; above 25 µM in experiment [4]; above 12.9 µM in experiment [5]; above 25 µM in experiment [6]. For the same compound, the TGI is above 25 µM in experiment [7], 1.96 µM in [8], above 25 µM in [9] and above 25 µM in [10].
As to `COc1ccc2c(c1)C(=O)/C(=C/c1ccc([N+](=O)[O-])s1)O2`, the GI50 is 0.283 µM in experiment [1]; 0.308 µM in experiment [2]; 0.713 µM in experiment [3]; 2.05 µM in experiment [4]; 0.49 µM in [5]; 0.325 µM in experiment [6]. Further, the GI50 in experiment [7] was 0.211 µM; in experiment [8] it was 0.252 µM; in experiment [9], 2.19 µM; in experiment [10] it was 0.709 µM. Further, the TGI was above 26.1 µM in experiment [3]; 6.51 µM in experiment [4]; 1.68 µM in experiment [5]; 0.875 µM in experiment [6]; 0.507 µM in experiment [7]; 0.548 µM in experiment [8]. The TGI in experiment [9] was above 100 µM; in [10] it was 3.53 µM.
With `COc1cc(OC)c2cc(C(=O)O)c(=O)oc2c1`, the GI50 was above 100 µM in experiment [1]; above 100 µM in experiment [2]; above 100 µM in experiment [3]; above 21.4 µM in [4]; above 100 µM in [5]; above 35.6 µM in [6]. Moreover, the GI50 in [7] was above 100 µM; in experiment [8], above 100 µM; in [9], 61.4 µM; in experiment [10], above 100 µM. Further, the TGI was above 100 µM in experiment [1]; above 100 µM in experiment [2]; above 100 µM in experiment [3]; above 75 µM in experiment [4]; above 100 µM in experiment [5]; above 53.8 µM in experiment [6]. For the same compound, the TGI in experiment [7], in experiment [8], in experiment [9] and in experiment [10] was above 100 µM in each case.
Regarding `N#CCC12CC=CCC1=C(O)C(=O)c1ccc(O)cc12` (stereo not drawn), the TGI in [1], in experiment [2], in [3], in experiment [4], in experiment [5] and in [6] was above 100 µM each time. Also, the TGI in experiment [7], in experiment [8], in experiment [9] and in [10] was above 100 µM in each case.
For the compound `Oc1ccc2ccccc2c1C(c1ccc(Cl)cc1)c1c(O)ccc2ccccc12`, the TGI in experiment [1] was 7.7 µM; in [2], 7.46 µM; in experiment [3] it was 4.91 µM; in experiment [4], 9.36 µM; in [5], 4.49 µM; in experiment [6], 6.71 µM. In addition, the TGI in [7] was 18.4 µM; in [8] it was 9.06 µM; in experiment [9] it was 9.08 µM; in experiment [10], 19.1 µM.
On to `O=C(Nc1cccc([N+](=O)[O-])c1)c1ccc2ccccc2c1O`, for which the GI50 in experiment [1] was 3.87 µM; in experiment [2] it was 2.35 µM; in experiment [3], 4.71 µM; in experiment [4], 3.27 µM; in [5], 15.4 µM; in experiment [6] it was 3.18 µM. Further, the GI50 is 6.8 µM in experiment [7], 2.61 µM in [8], 2.48 µM in experiment [9] and 3.79 µM in experiment [10]. The TGI in [1] was above 80.7 µM; in [2], above 35.1 µM; in [3], above 44.5 µM; in [4] it was above 66.7 µM; in experiment [5], above 57.5 µM; in experiment [6], 16.1 µM. Besides, the TGI in experiment [7] is above 100 µM; in experiment [8], 8.83 µM; in experiment [9], above 38.4 µM; in [10], above 89.8 µM.
